Experimental data taken from patent US11214803B2, “Modulators of YAP1 expression” (Ionis Pharmaceuticals, Inc., priority 2019, dated 2022).
Strand notation (5' to 3'): a small letter for the sugar, then the base; units joined by * are phosphorothioate-linked, units joined directly phosphodiester-linked; [ ] holds rarer units or linkages, { } end groups; capitals alone tell only the bases. k = constrained ethyl (cEt); [5mC] = 5-methylcytosine; d = 2'-deoxy (DNA)

tested on: Yap1 mRNA; test: Antisense inhibition of human Yap1 in A-431 cells by cEt gapmers, single dose (Example 2, RTS4814); format: cell-based; conditions: Table 5; A-431 cells, 5,000 cells per well, free uptake, 2,000 nM modified oligonucleotide, approx. 48 hours; RTS4814; normalized to RIBOGREEN; Yap1 mRNA relative to untreated control cells
Summary of the method: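 A-431 cells (5,000/well) took up 2,000 nM 3-10-3 cEt gapmer by free uptake for ~48 h. Yap1 mRNA was quantified by qRT-PCR with primer probe set RTS4814, normalized to RIBOGREEN total RNA, and reported as % of untreated control.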

With “716413 (kT*k[5mC]*k[5mC]*dA*dA*dG*dG*dT*d[5mC]*d[5mC]*dA*d[5mC]*dA*kT*kT*kT; antisense) [Compound 716413]” the “YAP1 (% UTC)” value was 79 % UTC.

same assay, conditions: Table 6; A-431 cells, 5,000 cells per well, free uptake, 2,000 nM modified oligonucleotide, approx. 48 hours; RTS4814; normalized to RIBOGREEN; Yap1 mRNA relative to untreated control cells

With “716576 (kT*kG*kT*d[5mC]*dA*dG*dT*dT*dA*dT*d[5mC]*d[5mC]*dT*kA*kT*k[5mC]; antisense) [Compound 716576]” the “YAP1 (% UTC)” value was 52 % UTC.

same assay, conditions: Table 18; A-431 cells, 5,000 cells per well, free uptake, 2,000 nM modified oligonucleotide, approx. 48 hours; RTS4814; normalized to RIBOGREEN; Yap1 mRNA as percent of untreated control

Point of comparison: “1076196 (kT*kA*kT*d[5mC]*dA*dA*dG*dG*dG*dA*dA*dT*dT*kA*kT*kT; antisense) [Compound 1076196]”, “YAP1 (% UTC)” value 113 % UTC. Against it:
- 1074148 (antisense kG*kT*kG*dG*dA*dG*dA*dA*dG*d[5mC]*dG*dG*d[5mC]*kG*kA*k[5mC]) [Compound 1074148] — lower, 66 % UTC
- 1074980 (antisense kT*kA*kT*dT*dG*d[5mC]*d[5mC]*dA*dG*dT*dT*d[5mC]*dT*kT*kG*kT) [Compound 1074980] — lower, 26 % UTC

same assay, conditions: Table 19; A-431 cells, 5,000 cells per well, free uptake, 2,000 nM modified oligonucleotide, approx. 48 hours; RTS4814; normalized to RIBOGREEN; Yap1 mRNA as percent of untreated control

Point of comparison: “1074725 (antisense kG*kT*kA*dT*dA*dA*d[5mC]*dT*dG*dG*dG*d[5mC]*dA*kA*kA*kT) [Compound 1074725]”, “YAP1 (% UTC)” value 17 % UTC. Against it:
- 1075397 (antisense k[5mC]*kA*kT*dT*dA*dT*d[5mC]*dG*d[5mC]*dA*d[5mC]*dA*dT*kA*k[5mC]*kA) [Compound 1075397] — higher, 79 % UTC
- 1075557 (kT*kA*kT*dT*dA*dA*dG*dG*dT*dG*dG*d[5mC]*dT*kT*kA*k[5mC]; antisense) [Compound 1075557] — higher, 57 % UTC
- 1075045 (antisense kA*kA*kA*dT*dT*dA*dG*dA*d[5mC]*dT*d[5mC]*d[5mC]*d[5mC]*k[5mC]*k[5mC]*kA) [Compound 1075045] — higher, 18 % UTC

same assay, conditions: Table 20; Yap1 mRNA, percent of untreated control; 3-10-3 cEt gapmers targeting SEQ ID NO.: 1 and 2

Point of comparison: “1074566 (antisense k[5mC]*kA*k[5mC]*dT*dG*dA*dA*dT*dT*d[5mC]*d[5mC]*dA*dA*kT*k[5mC]*kG) [Compound 1074566]”, “YAP1 (% UTC)” value 3 % UTC. Against it:
- 1076230 (kG*kA*kA*dT*dT*dA*dA*d[5mC]*d[5mC]*dT*d[5mC]*dA*dG*kT*kG*kA; antisense) [Compound 1076230] — higher, 50 % UTC
- 1075430 (antisense k[5mC]*kT*kT*dA*dA*d[5mC]*dT*dA*dA*d[5mC]*dT*dT*dG*kA*k[5mC]*k[5mC]) [Compound 1075430] — higher, 96 % UTC
- 1075014 (antisense kG*kG*kA*dG*dA*dA*dA*dT*dA*dA*dA*dA*dG*kT*k[5mC]*kG) [Compound 1075014] — higher, 46 % UTC

same assay, conditions: Table 21; Yap1 mRNA, percent of untreated control; 3-10-3 cEt gapmers targeting SEQ ID NO.: 1 and 2

Point of comparison: “1076359 (kA*kT*kT*dT*dA*dT*d[5mC]*d[5mC]*dT*dA*dG*dT*dT*kA*k[5mC]*k[5mC]; antisense) [Compound 1076359]”, “YAP1 (% UTC)” value 29 % UTC. Against it:
- 1075527 (kA*kT*kT*dT*dA*dA*dT*dT*dA*dA*dG*dG*dG*k[5mC]*k[5mC]*k[5mC]; antisense) [Compound 1075527] — higher, 82 % UTC

same assay, conditions: Table 22; Yap1 mRNA as percent of untreated control; 3-10-3 cEt gapmers; single dose

Point of comparison: “1076424 (kA*k[5mC]*kT*dT*dA*dA*d[5mC]*d[5mC]*dT*dG*dA*d[5mC]*dA*kG*k[5mC]*kT; antisense) [Compound 1076424]”, “YAP1 (% UTC)” value 76 % UTC. Against it:
- 1075528 (kA*kT*k[5mC]*dG*dA*dA*dG*dG*dG*d[5mC]*dA*dA*dA*k[5mC]*kT*k[5mC]; antisense) [Compound 1075528] — lower, 42 % UTC
- 1076328 (kA*k[5mC]*kT*dG*dA*dA*d[5mC]*d[5mC]*dG*d[5mC]*dT*dG*d[5mC]*k[5mC]*kT*k[5mC]; antisense) [Compound 1076328] — lower, 33 % UTC
- 1075240 (antisense kT*kA*kA*dA*d[5mC]*dG*dG*dT*dT*dT*dA*dT*dA*kT*kT*k[5mC]) [Compound 1075240] — lower, 16 % UTC
- 1075144 (antisense kA*k[5mC]*k[5mC]*d[5mC]*dT*dA*dT*dA*dT*d[5mC]*d[5mC]*dT*dA*kT*kA*kT) [Compound 1075144] — higher, 82 % UTC
- 1074568 (antisense kG*kA*kA*d[5mC]*d[5mC]*dT*dA*d[5mC]*dT*d[5mC]*dA*d[5mC]*dT*kG*kA*kA) [Compound 1074568] — lower, 12 % UTC

same assay, conditions: Table 23; Yap1 mRNA as percent of untreated control; 3-10-3 cEt gapmers; single dose

Point of comparison: “1074153 (antisense k[5mC]*kA*k[5mC]*dG*dG*dG*d[5mC]*d[5mC]*dG*dA*dG*dG*dT*kG*kG*kA) [Compound 1074153]”, “YAP1 (% UTC)” value 78 % UTC. Against it:
- 1076041 (kG*kT*kT*dA*dA*dA*dG*dA*dG*dT*dG*dG*dA*kA*kA*kT; antisense) [Compound 1076041] — lower, 47 % UTC

same assay, conditions: Table 24; Yap1 mRNA as percent of untreated control; 3-10-3 cEt gapmers targeting SEQ ID NO.: 1, and 2

Point of comparison: “1075242 (antisense k[5mC]*kA*kG*dG*dG*dA*dT*dA*dA*dT*dT*dA*d[5mC]*kT*kA*kA) [Compound 1075242]”, “YAP1 (% UTC)” value 7 % UTC. Against it:
- 1075626 (k[5mC]*kA*kT*dT*dA*dG*d[5mC]*d[5mC]*dA*dA*dA*dG*d[5mC]*kT*k[5mC]*kA; antisense) [Compound 1075626] — higher, 34 % UTC
- 1076106 (k[5mC]*kT*kA*d[5mC]*dG*dA*dA*dA*dT*dA*dG*dT*dA*kA*k[5mC]*kT; antisense) [Compound 1076106] — higher, 77 % UTC
- 1074154 (antisense k[5mC]*k[5mC]*kA*d[5mC]*dG*dG*dG*d[5mC]*d[5mC]*dG*dA*dG*dG*kT*kG*kG) [Compound 1074154] — higher, 100 % UTC
- 1075754 (k[5mC]*kT*kT*dA*dA*dA*dT*dG*dG*d[5mC]*dA*d[5mC]*dA*kG*kT*kT; antisense) [Compound 1075754] — higher, 20 % UTC

same assay, conditions: Table 25; Yap1 mRNA as percent of untreated control; 3-10-3 cEt gapmers targeting SEQ ID NO.: 1, and 2

For “1074763 (kT*kG*k[5mC]*dT*dA*d[5mC]*d[5mC]*d[5mC]*dA*dA*dT*dA*d[5mC]*kA*kA*k[5mC]; antisense) [Compound 1074763]”, the “YAP1 (% UTC)” value was 25 % UTC.

same assay, conditions: Table 32; Yap1 mRNA, percent of untreated control; 3-10-3 cEt gapmers targeting SEQ ID NO.: 1, and 2

Point of comparison: “1075410 (antisense kG*kA*kT*dT*dA*dA*d[5mC]*dA*dG*d[5mC]*d[5mC]*d[5mC]*dT*kT*kT*kA) [compound 1075410]”, “YAP1 (% UTC)” value 36 % UTC. Against it:
- 1074130 (kA*kT*k[5mC]*d[5mC]*d[5mC]*d[5mC]*d[5mC]*dG*d[5mC]*d[5mC]*d[5mC]*d[5mC]*dG*kG*k[5mC]*kG; antisense) [compound 1074130] — higher, 119 % UTC

same assay, conditions: Table 33; Yap1 mRNA, percent of untreated control; 3-10-3 cEt gapmers targeting SEQ ID NO.: 1, and 2

Point of comparison: “1074195 (antisense k[5mC]*k[5mC]*k[5mC]*dG*dG*dG*dT*d[5mC]*d[5mC]*dG*dG*dA*d[5mC]*kG*kG*k[5mC]) [compound 1074195]”, “YAP1 (% UTC)” value 79 % UTC. Against it:
- 1074995 (antisense kA*kA*kA*dA*d[5mC]*dT*dA*dA*dA*dT*dG*dG*dA*k[5mC]*k[5mC]*kG) [compound 1074995] — lower, 50 % UTC
- 1074227 (antisense kA*k[5mC]*kT*dG*dT*d[5mC]*dG*dA*dA*dG*dA*dT*dG*k[5mC]*kT*kG) [compound 1074227] — lower, 10 % UTC
- 1076019 (k[5mC]*kA*k[5mC]*dT*dA*dA*dT*dA*dG*dG*dA*dT*dG*kG*kA*kT; antisense) [compound 1076019] — lower, 12 % UTC

same assay, conditions: Yap1 mRNA as percent of untreated control; A-431 cells; 3-10-3 cEt gapmers targeting SEQ ID NO.: 1, and 2; Table 30

Point of comparison: “1075280 (antisense kG*kA*kA*d[5mC]*dT*dA*dT*dA*d[5mC]*dT*dA*dA*d[5mC]*kA*kT*kT) [compound 1075280]”, “YAP1 (% UTC)” value 57 % UTC. Against it:
- 1074416 (k[5mC]*kT*kT*dT*dA*dG*dA*dG*d[5mC]*d[5mC]*dA*dA*d[5mC]*kT*kG*kT; antisense) [compound 1074416] — lower, 9 % UTC
- 1076528 (kT*kT*kA*dT*dA*dA*dT*dG*dG*dG*dA*dG*dG*kA*kT*kT; antisense) [compound 1076528] — higher, 86 % UTC

same assay, conditions: Yap1 mRNA as percent of untreated control; A-431 cells; 3-10-3 cEt gapmers targeting SEQ ID NO.: 1, and 2; Table 31

Point of comparison: “1074193 (antisense kG*kG*kT*d[5mC]*d[5mC]*dG*dG*dA*d[5mC]*dG*dG*d[5mC]*dG*kG*kG*k[5mC]) [compound 1074193]”, “YAP1 (% UTC)” value 74 % UTC. Against it:
- 1074161 (kG*kG*k[5mC]*dG*dA*dG*d[5mC]*dG*dA*dG*dG*dG*d[5mC]*kT*kA*k[5mC]; antisense) [compound 1074161] — higher, 98 % UTC
- 1075569 (kG*kT*kA*dG*dA*dA*dA*dG*dG*d[5mC]*dA*dT*dT*kA*kG*kA; antisense) [compound 1075569] — lower, 45 % UTC
- 1074769 (kT*k[5mC]*kT*dT*dA*dT*d[5mC]*d[5mC]*d[5mC]*dA*dA*dT*dG*k[5mC]*kT*kA; antisense) [compound 1074769] — lower, 12 % UTC
